{"source": "patent US5696276A", "about": "“Process for preparing 5,8-dihydroxynaphthoquinone derivatives, novel 5,8-dihydroxynaphthoquinone derivatives and their use as anticancer agent” (Kuhnil Pharmaceutical Co., Ltd., priority 1993, dated 1997)", "key": {"K-562 cells": {"test_system": "K-562 cells", "assay": "Cytotoxic activity against K-562 cells", "assay_type": "cell-based", "conditions": "Homo sapiens, K562, 48 h, read-out: ED50, cytotoxic activity against K562", "outline": "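HL-60 and K-562 cells (1×10^5 cells/ml) incubated 48 h at 37° C with sample dilutions from ethanol or DMSO stocks; cells counted by haemacytometer. ED50 (μg/ml) is the concentration giving 50% growth inhibition versus control, taken from linear regression of growth rate against log concentration.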"}, "L1210 cells [1]": {"test_system": "L1210 cells", "assay": "Cytotoxic activity against L1210 cells", "assay_type": "cell-based", "conditions": "Mus musculus; L1210 cells, 48 hours, 37° C.; read-out: ED50, cytotoxic activity against L1210", "outline": "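Log-phase L1210 cells (5×10^4 cells/ml) in Fisher medium exposed 48 h at 37 °C in CO2 to three dilutions of sample dissolved in ethanol or DMSO. Cells counted by haemacytometer; growth relative to control; ED50 (μg/ml) from linear regression of growth % on log concentration.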"}, "A549 cancer cells": {"test_system": "A549 cancer cells", "assay": "Cytotoxic activity against A549 cancer cells (sulforhodamin B method)", "assay_type": "cell-based", "conditions": "Homo sapiens; A549 cells, SRB method, 48 hours; read-out: ED50, cytotoxic activity against A549", "outline": "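Cells seeded at 8×10^4 per well, attached 24 h, then exposed 48 h to six log-spaced concentrations in triplicate. TCA-fixed, SRB-stained, OD read at 520 nm; growth inhibition computed relative to time-zero and untreated counts, IC50 from regression.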"}, "HL-60 cells": {"test_system": "HL-60 cells", "assay": "Cytotoxic activity against HL-60 cells", "assay_type": "cell-based", "conditions": "Homo sapiens; HL-60 cells, 48 hours, 37° C.; read-out: ED50, cytotoxic activity against HL-60", "procedure": "As in the test for the cytotoxic activity against L1210 cells, the test samples were dissoved in ethanol or dimethylsulfoxide in a certain concentration. 0.1 ml of the sample solution was mixed with 0.9 ml of a fresh medium to prepare the dilutions. To each two test tubes having a screw cap were added 100, 50, 25 μl, respectively, of the sample dilutions by means of a micropipet. To each test tube for the test group and the control group (2√n: n=number of the samples) was added 5 ml of the dilutions of HL-60 cells and K-562 cells which were cultured and activated before 24 hours from the beginning of experiment and then diluted in a concentration of 1×10^5 cells/mi. All test tubes were cultured for 48 hours in a CO2 incubator at 37° C. and then the number of cells was counted using a haemacytometer.\nThe ED50 value is defined as a concentration (μg/ml) of the sample which inhibits the growth of cancer cells by 50% of the control group and determined according to a method described in NIC's mannual (NIC=National Cancer Institue, U.S.A.). The growth rate Y(%) of cells in the presence of the test sample in each concentration was calculated according to the followign equation: […]\nIn the above equation, T means the average cell number per ml in the test group after incubation for 48 hours in the presence of the test samples in each concentration, C means the average cell number per ml in the control group after incubation for 48 hours, and Co means the average cell number per ml in the control group at the beginning of incubation. The Y(%) value at each concentration and log10 value of each concentration were obtained and the regression curve was constructed according to the following equation from those obtained values. In this case, when all the Y(%) value obtained at each concentration is greater than 55% or lower than 45%, the experiment was repeatedly conducted.\nTo construct the regression curve Y=A+BX the values A and B were obtained using the following equation. [formula]\nIn the above, the value N is the number of selected points which is greater than 2 and lower than, or identical with, the number of cencentration of the test sample, Xi is log(concentration) i, and Yi is the growth ratio at (concentration)i. The value of ED50 was obtained for those obtained slope and intercept."}, "L1210 cancer": {"test_system": "L1210 cancer", "conditions": "Chem. Pharm. Bull. 25, 2392-2395 (1977); cited from earlier work"}, "S-180 ascitic cancer": {"test_system": "S-180 ascitic cancer", "conditions": "mouse suffering from S-180 ascitic cancer; Chem. Pharm. Bull. 25, 2392-2395 (1977); cited from earlier work"}, "S-180 sarcoma cells": {"test_system": "S-180 sarcoma cells", "assay": "Animal experiment using Sarcoma S-180 cells (survival of mouse)", "assay_type": "in vivo, male ICR mouse", "conditions": "for responders at 15 µmol/kg / response vs control in vivo at 15 µmol/kg: daily dose 15 μmole (mg/kg/day given per compound)", "outline": "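Male ICR mice (20 to 25 g) received intraperitoneal transplants of 0.1 ml S-180 cell suspension (10^7 cells/ml), prepared from ascites by washing in cold physiological saline. After 24 hours, groups of 8 to 9 mice received 7 to 8 ip injections of sample in dimethylsulfoxide diluted with saline. Controls got 2% dimethylsulfoxide-saline. Survival (T/C, %) was scored against control death.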"}, "L1210 cells [2]": {"test_system": "L1210 cells", "conditions": "Kor. J. Pharm. Soc., 34, 262-266 (1990); cited from earlier work"}, "S-180 sarcoma": {"test_system": "S-180 sarcoma", "conditions": "Kor. J. Pharm. Soc., 34, 262-266 (1990); cited from earlier work"}, "[3]": {"conditions": "ip, 1200 h, S-180 ICR mouse, intraperitoneal, 7 to 8 injections, read-out: Number of mouse survived for 50 days (converted)"}, "[4]": {"conditions": "ip, S-180 ICR mouse, intraperitoneal, 7 to 8 injections, read-out: T/C"}}}
{"compound": "O=c1[nH]cc(F)c(=O)[nH]1", "note": "[5-Fluorouracil, reference compound]", "values": [{"measurement": "IC50", "setting": "K-562 cells", "result": 1, "unit": "µg/mL"}, {"measurement": "IC50", "setting": "L1210 cells [1]", "result": 0.02, "unit": "µg/mL"}, {"measurement": "IC50", "setting": "A549 cancer cells", "result": 3.7, "unit": "µg/mL"}, {"measurement": "IC50", "setting": "HL-60 cells", "result": 0.2, "unit": "µg/mL"}]}
{"compound": "CC(C)=CC[C@@H](O)C1=CC(=O)c2c(O)ccc(O)c2C1=O", "note": "[shikonin]", "values": [{"measurement": "effect in mouse suffering from L1210 cancer", "setting": "L1210 cancer", "result": "does not show a significant effect"}, {"measurement": "increase in life span (LSI)", "setting": "S-180 ascitic cancer", "result": 92, "unit": "%"}]}
{"compound": "CC(=O)OC(CC=C(C)C)C1=CC(=O)c2c(O)ccc(O)c2C1=O", "note": "(stereo not drawn) [2-(1-acetyloxy-4-methyl-3-pentenyl)-5,8-dihydroxy-1,4-naphthoquinone]", "values": [{"measurement": "responders at 5 µmol/kg", "setting": "S-180 sarcoma cells; Mus musculus, S-180, ip, 1200 h, read-out: Number of mouse survived for 50 days", "result": 0, "unit": "%"}, {"measurement": "response vs control in vivo at 5 µmol/kg", "setting": "S-180 sarcoma cells; ip, S-180 ICR mouse, intraperitoneal, daily dose 5 μmole (mg/kg/day given per compound), 7 to 8 injections, read-out: T/C", "result": 160, "unit": "%"}, {"measurement": "ED50 value against L1210 cells", "setting": "L1210 cells [2]", "result": 0.01, "unit": "µg/mL"}, {"measurement": "IC50", "setting": "L1210 cells [1]", "result": "< 0.01", "unit": "µg/mL"}, {"measurement": "IC50", "setting": "A549 cancer cells", "result": 1, "unit": "µg/mL"}, {"measurement": "LSI in mouse suffering from S-180 sarcoma", "setting": "S-180 sarcoma", "result": 85, "unit": "%"}, {"measurement": "IC50", "setting": "HL-60 cells", "result": 0.06, "unit": "µg/mL"}]}
{"compound": "CC(C)=CCC(OC(=O)C(c1ccccc1)c1ccccc1)C1=CC(=O)c2c(O)ccc(O)c2C1=O", "note": "(stereo not drawn) [2-(1-diphenylacetyloxy-4-methyl-3-pentenyl)-5,8-dihydroxy-1,4-naphthoquinone]", "values": [{"measurement": "responders at 15 µmol/kg", "setting": "S-180 sarcoma cells; [3]", "result": 25, "unit": "%"}, {"measurement": "response vs control in vivo at 15 µmol/kg", "setting": "S-180 sarcoma cells; [4]", "result": 208, "unit": "%"}, {"measurement": "IC50", "setting": "L1210 cells [1]", "result": 0.2, "unit": "µg/mL"}, {"measurement": "IC50", "setting": "A549 cancer cells", "result": 6.3, "unit": "µg/mL"}, {"measurement": "IC50", "setting": "HL-60 cells", "result": 0.4, "unit": "µg/mL"}]}
{"compound": "CCCCCCCCCCCCCCCC(=O)OC(CC=C(C)C)C1=CC(=O)c2c(O)ccc(O)c2C1=O", "note": "(stereo not drawn) [2-(1-palmityloxy-4-methyl-3-pentenyl)-5,8-dihydroxy-1,4-naphthoquinone]", "values": [{"measurement": "responders at 15 µmol/kg", "setting": "S-180 sarcoma cells; [3]", "result": 0, "unit": "%"}, {"measurement": "response vs control in vivo at 15 µmol/kg", "setting": "S-180 sarcoma cells; [4]", "result": 109, "unit": "%"}, {"measurement": "IC50", "setting": "L1210 cells [1]", "result": 2.1, "unit": "µg/mL"}, {"measurement": "IC50", "setting": "A549 cancer cells", "result": "> 20", "unit": "µg/mL"}, {"measurement": "IC50", "setting": "HL-60 cells", "result": 3, "unit": "µg/mL"}]}
{"compound": "C=CCCC(=O)OC(CC=C(C)C)C1=CC(=O)c2c(O)ccc(O)c2C1=O", "note": "(stereo not drawn) [2-[1-(4-pentenoyl)oxy-4-methyl-3-pentenyl]-5,8-dihydroxy-1,4-naphthoquinone]", "values": [{"measurement": "responders at 10 µmol/kg", "setting": "S-180 sarcoma cells; ip, 1200 h, S-180 ICR mouse, intraperitoneal, daily dose 10 μmole (mg/kg/day given per compound), 7 to 8 injections, read-out: Number of mouse survived for 50 days (converted)", "result": 14.3, "unit": "%"}, {"measurement": "response vs control in vivo at 10 µmol/kg", "setting": "S-180 sarcoma cells; ip, S-180 ICR mouse, intraperitoneal, daily dose 10 μmole (mg/kg/day given per compound), 7 to 8 injections, read-out: T/C", "result": 180, "unit": "%"}, {"measurement": "IC50", "setting": "L1210 cells [1]", "result": 0.02, "unit": "µg/mL"}, {"measurement": "IC50", "setting": "A549 cancer cells", "result": 1, "unit": "µg/mL"}, {"measurement": "IC50", "setting": "HL-60 cells", "result": 0.5, "unit": "µg/mL"}]}
{"compound": "C=CCCCCCCCCC(=O)OC(CC=C(C)C)C1=CC(=O)c2c(O)ccc(O)c2C1=O", "note": "(stereo not drawn) [2-(1-undecylenoyloxy-4-methyl-3-pentenyl)-5,8-dihydroxy-1,4-naphthoquinone]", "values": [{"measurement": "responders at 15 µmol/kg", "setting": "S-180 sarcoma cells; [3]", "result": 0, "unit": "%"}, {"measurement": "response vs control in vivo at 15 µmol/kg", "setting": "S-180 sarcoma cells; [4]", "result": 110, "unit": "%"}, {"measurement": "IC50", "setting": "L1210 cells [1]", "result": 0.01, "unit": "µg/mL"}, {"measurement": "IC50", "setting": "A549 cancer cells", "result": 6.7, "unit": "µg/mL"}, {"measurement": "IC50", "setting": "HL-60 cells", "result": 0.3, "unit": "µg/mL"}]}
